Experimental data reported in ChEMBL document CHEMBL1201862, “PubChem BioAssay data set” (2004).
The source made the active and inactive calls.

Experiments:
[1] = target: T1, Beta-2 adrenergic receptor (Homo sapiens, UniProt P07550); assay: Dose response for HTS for Beta-2AR agonists via FAP method from Powderset3.; type: functional
[2] = target: T1, Beta-2 adrenergic receptor; assay: ADRB2 activation measured by internalization – cell-based, FAP fluorogen, flow cytometry, cherry pick 1, dose response (AID 588763); type: functional
Beta-galactosidase = Beta-galactosidase (Escherichia coli, UniProt Q8VNN2); assay: PubChem AID 485352; type: functional
[3] = loss of viability in HepG2 cells – cell-based, CellTiter-Glo, cherry-picked, cytotoxicity control for Shn3 inhibitor project, dose response (AID 624134); type: functional
Jurkat = assay: blockers of NF-kB activation in T cells – Jurkat, luciferase reporter, luminescence, B- and T-cell, dose response (AID 489004); type: functional, cell-based; conditions: Homo sapiens;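 further: NF-kB luciferase reporter Jurkat cells stimulated with PMA plus ionomycin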
[4] = non-specific 3'UTR reporter inhibition in Clone20-Shn3RL – cell-based, Renilla luciferase, cherry-picked, counter-screen for Shn3 inhibitor project, dose response (AID 624133); type: functional
[5] = HEK-293T viability loss, compound-treated – cell-based, uHTS hits, cytotoxicity control for B/T-cell NF-kB inhibitor project, dose response (AID 489019); type: functional;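 further: IC50 reflects cytotoxicity as loss of cell viability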
[6] = target: T2, Type-1 angiotensin II receptor (Homo sapiens, UniProt P30556); assay: antagonism of angiotensin II type 1 receptor – cell-based, uHTS hits, selectivity assay for APJ receptor antagonist project, dose response (AID 463214); type: functional;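 further: antagonist potency against angiotensin II stimulated AT1 response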
T2 sequence (P30556 whole entry): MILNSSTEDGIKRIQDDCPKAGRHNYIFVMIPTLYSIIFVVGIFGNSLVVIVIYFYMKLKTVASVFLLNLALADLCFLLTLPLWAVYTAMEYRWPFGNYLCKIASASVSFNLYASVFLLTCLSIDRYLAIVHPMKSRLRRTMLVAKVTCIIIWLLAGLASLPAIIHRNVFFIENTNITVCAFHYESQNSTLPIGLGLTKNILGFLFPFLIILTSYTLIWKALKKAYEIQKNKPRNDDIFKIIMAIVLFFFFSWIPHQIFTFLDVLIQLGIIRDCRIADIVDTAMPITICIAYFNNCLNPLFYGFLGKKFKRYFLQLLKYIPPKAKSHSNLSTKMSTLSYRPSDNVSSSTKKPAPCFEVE

[7] = reduction of Shn3 3'UTR-driven luciferase in osteoblasts – cell-based, Clone20 osteoblasts, firefly luciferase, cherry-picked, dose response (AID 624132); type: functional;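 further: firefly luciferase luminescence from reporter carrying the Shn3 3'UTR in osteoblasts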
[8] = viability loss of HMLE_sh_eGFP cells – cell-based, luminescence, counter-screen for HMLE_sh_ECad selective toxicity project, dose response (AID 463074); type: functional, Homo sapiens;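 further: HMLE human mammary epithelial cells expressing control shRNA against eGFP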
[9] = Luminescence Cell-Based Dose Retest to Confirm Inhibitors of Cancer Stem Cells. [Related pubchem assays (depositor defined):AID2717, AID2721]; type: functional; conditions: Homo sapiens
[10] = target: T3, Tyrosine-protein phosphatase non-receptor type 22 (Homo sapiens, UniProt Q9Y2R2); assay: inhibition of lymphoid tyrosine phosphatase LYP – biochemical, pCAP fluorogenic substrate, fluorescence, set 3, SAR follow-up (AID 449727); type: functional
T3 sequence (Q9Y2R2 whole entry): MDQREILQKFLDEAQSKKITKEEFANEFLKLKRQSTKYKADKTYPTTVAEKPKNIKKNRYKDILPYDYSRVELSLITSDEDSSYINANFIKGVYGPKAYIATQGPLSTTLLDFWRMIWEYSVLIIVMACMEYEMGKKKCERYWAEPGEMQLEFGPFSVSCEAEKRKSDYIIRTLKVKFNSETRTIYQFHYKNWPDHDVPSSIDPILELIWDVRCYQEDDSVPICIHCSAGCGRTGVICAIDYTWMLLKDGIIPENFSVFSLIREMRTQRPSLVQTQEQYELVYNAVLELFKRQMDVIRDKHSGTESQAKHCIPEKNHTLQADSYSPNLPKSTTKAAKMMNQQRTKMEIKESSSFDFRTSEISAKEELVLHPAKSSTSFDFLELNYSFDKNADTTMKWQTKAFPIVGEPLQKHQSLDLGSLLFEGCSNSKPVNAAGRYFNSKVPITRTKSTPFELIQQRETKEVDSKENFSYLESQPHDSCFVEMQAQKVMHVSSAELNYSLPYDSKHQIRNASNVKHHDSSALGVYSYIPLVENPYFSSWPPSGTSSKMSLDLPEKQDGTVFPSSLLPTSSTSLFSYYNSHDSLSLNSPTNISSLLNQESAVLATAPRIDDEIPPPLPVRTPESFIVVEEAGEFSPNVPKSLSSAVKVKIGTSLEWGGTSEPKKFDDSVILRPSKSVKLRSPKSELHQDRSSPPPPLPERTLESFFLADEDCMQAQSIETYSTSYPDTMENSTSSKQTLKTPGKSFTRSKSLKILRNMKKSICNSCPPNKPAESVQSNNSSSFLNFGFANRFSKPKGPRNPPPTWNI

[11] = target: T3, Tyrosine-protein phosphatase non-receptor type 22; assay: SAR LYP1 Fluorescent Assay using OMFP substrate for In Vitro dose response studies - Set 3. [Related pubchem assays (depositor defined):AID1779, AID1784, AID2140, AID2686]; type: functional
[12] = target: T4, Tyrosine-protein phosphatase non-receptor type 7 (Homo sapiens, UniProt P35236); assay: redox-active compounds inhibiting HePTP phosphatase – biochemical, fluorescence, mechanism study (AID 2068); type: functional
T4 sequence (P35236 whole entry): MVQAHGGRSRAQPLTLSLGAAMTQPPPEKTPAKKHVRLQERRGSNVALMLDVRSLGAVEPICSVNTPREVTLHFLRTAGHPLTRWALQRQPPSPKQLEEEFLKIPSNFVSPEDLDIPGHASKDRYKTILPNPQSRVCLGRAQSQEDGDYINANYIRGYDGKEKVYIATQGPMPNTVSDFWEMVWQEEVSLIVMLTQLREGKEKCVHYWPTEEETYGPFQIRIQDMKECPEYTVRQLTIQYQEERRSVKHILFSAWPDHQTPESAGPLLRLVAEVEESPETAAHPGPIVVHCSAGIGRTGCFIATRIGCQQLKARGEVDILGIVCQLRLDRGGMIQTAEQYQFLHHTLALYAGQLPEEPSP

[13] = target: T5, Dual specificity protein phosphatase 3 (Homo sapiens, UniProt P51452); assay: MOA VHR1 Fluorescent secondary assay for identification of redox-state modulating compounds. [Related pubchem assays (depositor defined):AID1654, AID1661, AID1878, AID1957]
[14] = target: T4, Tyrosine-protein phosphatase non-receptor type 7; assay: inhibition of hematopoietic tyrosine phosphatase HePTP – biochemical, set 2, SAR follow-up (AID 449736); type: functional
[15] = target: T5, Dual specificity protein phosphatase 3; assay: SAR VHR1 Fluorescent Assay for In Vitro dose response studies. [Related pubchem assays (depositor defined):AID1654, AID1661, AID1878, AID1992, AID2004, AID2070, AID2085]; type: functional
[16] = target: Tyrosine-protein phosphatase non-receptor type 12 (Homo sapiens, UniProt Q05209); assay: SAR Selectivity Analysis of small molecule inhibitors of PEST using pCAP in a fluorescence assay. [Related pubchem assays (depositor defined):AID1779, AID1784, AID2135]; type: functional
[17] = target: T5, Dual specificity protein phosphatase 3; assay: SAR VHR1 Fluorescent Assay for In Vitro dose response studies Set 2. [Related pubchem assays (depositor defined):AID1654, AID1661, AID1878]; type: functional
[18] = target: Dual specificity protein phosphatase 6 (Rattus norvegicus, UniProt Q64346); type: functional;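 further: confirmatory in vitro dose-response testing of MKP-3 inhibition; recombinant His-tagged MKP-3 made in E. coli BL21 with OMFP substrate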
Dual specificity protein phosphatase 6, sequence (Q64346 whole entry): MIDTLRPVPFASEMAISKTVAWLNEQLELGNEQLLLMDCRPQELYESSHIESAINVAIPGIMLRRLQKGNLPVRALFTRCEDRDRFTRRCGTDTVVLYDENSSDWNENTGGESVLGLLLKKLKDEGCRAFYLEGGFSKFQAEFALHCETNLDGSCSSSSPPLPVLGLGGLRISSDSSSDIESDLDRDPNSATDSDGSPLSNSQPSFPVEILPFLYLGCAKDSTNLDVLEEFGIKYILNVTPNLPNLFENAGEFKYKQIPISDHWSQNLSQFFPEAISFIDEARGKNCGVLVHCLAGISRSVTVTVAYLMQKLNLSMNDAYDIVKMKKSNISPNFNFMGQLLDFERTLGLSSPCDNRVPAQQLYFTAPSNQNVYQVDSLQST

T5 sequence (P51452 whole entry): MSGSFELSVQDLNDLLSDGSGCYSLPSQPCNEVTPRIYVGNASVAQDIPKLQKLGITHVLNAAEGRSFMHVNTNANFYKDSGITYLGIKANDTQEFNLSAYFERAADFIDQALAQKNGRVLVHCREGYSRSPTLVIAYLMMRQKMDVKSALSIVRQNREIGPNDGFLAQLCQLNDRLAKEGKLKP
T1 sequence (P07550 whole entry): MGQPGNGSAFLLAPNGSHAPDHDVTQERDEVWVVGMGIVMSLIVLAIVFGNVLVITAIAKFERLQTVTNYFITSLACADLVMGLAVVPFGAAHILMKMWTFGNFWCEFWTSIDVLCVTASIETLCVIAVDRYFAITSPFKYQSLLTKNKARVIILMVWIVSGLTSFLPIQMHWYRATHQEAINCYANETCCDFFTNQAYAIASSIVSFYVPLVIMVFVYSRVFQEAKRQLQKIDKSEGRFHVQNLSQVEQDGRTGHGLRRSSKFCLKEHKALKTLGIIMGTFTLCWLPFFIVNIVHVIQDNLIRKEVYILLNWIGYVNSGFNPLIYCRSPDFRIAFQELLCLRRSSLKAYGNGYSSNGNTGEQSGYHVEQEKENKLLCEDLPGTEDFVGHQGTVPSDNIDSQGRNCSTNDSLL
Tyrosine-protein phosphatase non-receptor type 12, sequence (Q05209 whole entry): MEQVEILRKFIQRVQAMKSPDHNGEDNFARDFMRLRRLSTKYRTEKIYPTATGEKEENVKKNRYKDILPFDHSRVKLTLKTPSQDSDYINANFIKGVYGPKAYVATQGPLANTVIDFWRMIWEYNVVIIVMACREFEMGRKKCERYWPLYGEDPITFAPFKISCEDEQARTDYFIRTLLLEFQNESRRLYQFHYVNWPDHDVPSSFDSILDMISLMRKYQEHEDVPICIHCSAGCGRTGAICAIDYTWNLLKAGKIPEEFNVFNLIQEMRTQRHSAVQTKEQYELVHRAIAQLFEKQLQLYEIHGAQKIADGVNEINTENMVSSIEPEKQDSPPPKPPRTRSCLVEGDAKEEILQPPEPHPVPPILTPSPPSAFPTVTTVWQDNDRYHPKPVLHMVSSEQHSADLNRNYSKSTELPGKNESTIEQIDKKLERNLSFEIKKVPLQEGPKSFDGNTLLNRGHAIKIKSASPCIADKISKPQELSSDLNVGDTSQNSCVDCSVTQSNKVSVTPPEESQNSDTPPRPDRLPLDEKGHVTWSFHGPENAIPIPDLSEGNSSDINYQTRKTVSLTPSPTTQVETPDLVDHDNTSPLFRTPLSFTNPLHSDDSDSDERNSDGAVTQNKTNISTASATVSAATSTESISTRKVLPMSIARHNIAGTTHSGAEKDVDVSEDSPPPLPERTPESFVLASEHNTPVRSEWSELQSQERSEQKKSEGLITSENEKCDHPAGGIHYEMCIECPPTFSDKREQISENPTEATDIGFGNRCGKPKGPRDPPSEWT
Beta-galactosidase, sequence (Q8VNN2 whole entry): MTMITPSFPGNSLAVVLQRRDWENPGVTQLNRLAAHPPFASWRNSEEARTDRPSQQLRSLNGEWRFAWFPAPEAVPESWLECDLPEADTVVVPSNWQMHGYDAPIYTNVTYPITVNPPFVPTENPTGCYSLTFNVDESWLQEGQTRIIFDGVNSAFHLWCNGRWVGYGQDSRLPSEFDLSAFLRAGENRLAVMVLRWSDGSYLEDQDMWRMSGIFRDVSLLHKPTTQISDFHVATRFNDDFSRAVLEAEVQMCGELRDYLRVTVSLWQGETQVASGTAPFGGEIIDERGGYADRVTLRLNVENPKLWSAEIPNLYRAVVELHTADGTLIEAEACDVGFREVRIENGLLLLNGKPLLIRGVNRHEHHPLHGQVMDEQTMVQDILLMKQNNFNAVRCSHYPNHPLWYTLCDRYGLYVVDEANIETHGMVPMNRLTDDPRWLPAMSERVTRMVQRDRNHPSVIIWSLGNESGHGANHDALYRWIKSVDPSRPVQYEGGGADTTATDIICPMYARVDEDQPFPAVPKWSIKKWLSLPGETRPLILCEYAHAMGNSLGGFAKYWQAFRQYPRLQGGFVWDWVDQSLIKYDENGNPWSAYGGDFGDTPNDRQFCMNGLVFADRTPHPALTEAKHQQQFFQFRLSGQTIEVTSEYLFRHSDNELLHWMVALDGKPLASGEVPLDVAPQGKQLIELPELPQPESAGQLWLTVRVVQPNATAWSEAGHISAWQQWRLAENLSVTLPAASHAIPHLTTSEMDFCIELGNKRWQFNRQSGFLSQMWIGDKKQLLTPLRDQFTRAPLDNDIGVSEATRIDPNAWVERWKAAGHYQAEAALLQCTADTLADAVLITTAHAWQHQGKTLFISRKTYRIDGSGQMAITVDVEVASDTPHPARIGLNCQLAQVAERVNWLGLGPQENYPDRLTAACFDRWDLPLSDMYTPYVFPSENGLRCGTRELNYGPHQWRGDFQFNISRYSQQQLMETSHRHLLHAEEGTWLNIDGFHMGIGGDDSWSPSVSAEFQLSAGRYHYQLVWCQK

C=CCn1c(CCNC(=O)c2cccs2)nnc1SCC(=O)c1ccc(Br)cc1
EC50 [1]: 0.00548 µM (active)
EC50 [2]: 0.214 µM (active)

O=C1/C(=C/c2ccccc2)C[C@@]2(O)[C@H]3Cc4ccc(O)c5c4[C@@]2(CCN3CC2CC2)C1O5 (stereo not given in full)
EC50 (Beta-galactosidase): > 40 µM (inactive)
AC50 [3]: 8.88 µM (active)
IC50 (Jurkat): 4.22 µM (active)
AC50 [4]: 7.78 µM (active)
IC50 [5]: > 80 µM (inactive)
IC50 [6]: 14 µM (active)
AC50 [7]: 4.64 µM (active)

Cc1ccc(Nc2nc(N)nc(CSC(=S)N3CCN(c4ccccc4)CC3)n2)cc1
AC50 [8]: 31.4 µM (active)
AC50 [9]: 13.4 µM (active)

CCOC(=O)C1=C(C)N=c2s/c(=C\c3cc(Cl)c(OCC(=O)O)c(Cl)c3)c(=O)n2C1c1cccc(OC)c1 (stereo not given)
IC50 [10]: 34.1 µM (active)
IC50 [11]: 44.6 µM (active)
IC50 [12]: 1.95 µM (active)
IC50 [13]: 2.76 µM (active)
IC50 [14]: 1.22 µM (active)
IC50 [15]: 13.4 µM (active)
IC50 [16]: 7.99 µM (active)
IC50 [17]: 31.9 µM (active)
IC50 [18]: 49.7 µM (active)
